Data reported in ChEMBL document CHEMBL2177024 (J Med Chem, 2012).
pIC50, pKi: −log10 of the molar value.

How the values were obtained:
Beta-secretase 1 [1] = target: T1, Beta-secretase 1 (Homo sapiens, UniProt P56817)
Beta-secretase 1 [2] = target: T1, Beta-secretase 1; remark: listed apart in the source
Description: Inhibition of BACE1 in human neuroblastoma cells

Cathepsin D = Cathepsin D (Homo sapiens, UniProt P07339)
Chain of Cathepsin D (P07339 65-162 limits assumed): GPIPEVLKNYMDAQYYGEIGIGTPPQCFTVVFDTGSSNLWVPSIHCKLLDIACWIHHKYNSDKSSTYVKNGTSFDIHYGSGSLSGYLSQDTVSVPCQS
Chain of Cathepsin D (P07339 169-412 limits assumed): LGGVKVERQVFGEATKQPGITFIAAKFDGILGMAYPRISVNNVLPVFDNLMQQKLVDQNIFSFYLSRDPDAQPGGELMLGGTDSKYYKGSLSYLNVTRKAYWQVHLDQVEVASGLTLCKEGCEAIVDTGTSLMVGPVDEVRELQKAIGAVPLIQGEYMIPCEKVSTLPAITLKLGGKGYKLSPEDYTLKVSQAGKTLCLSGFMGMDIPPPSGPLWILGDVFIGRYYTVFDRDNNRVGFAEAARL
Description: Inhibition of human cathepsin D

T1 sequence (P56817 whole entry): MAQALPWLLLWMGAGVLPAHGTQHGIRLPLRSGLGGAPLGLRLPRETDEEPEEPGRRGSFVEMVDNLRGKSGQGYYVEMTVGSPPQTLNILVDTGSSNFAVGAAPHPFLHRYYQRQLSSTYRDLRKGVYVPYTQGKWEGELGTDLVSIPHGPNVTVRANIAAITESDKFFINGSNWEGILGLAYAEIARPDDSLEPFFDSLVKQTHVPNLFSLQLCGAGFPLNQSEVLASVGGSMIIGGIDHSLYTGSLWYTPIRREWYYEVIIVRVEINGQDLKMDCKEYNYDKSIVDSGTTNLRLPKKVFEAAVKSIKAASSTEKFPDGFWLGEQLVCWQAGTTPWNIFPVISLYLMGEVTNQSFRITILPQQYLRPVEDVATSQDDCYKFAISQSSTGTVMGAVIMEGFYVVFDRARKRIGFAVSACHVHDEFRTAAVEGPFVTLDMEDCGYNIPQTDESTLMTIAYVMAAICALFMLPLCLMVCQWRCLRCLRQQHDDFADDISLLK

Row | Structure (SMILES) | pKi (Beta-secretase 1 [1]) | pIC50 (Beta-secretase 1 [2]) | pKi (Cathepsin D)
1 | CC(C)CNC[C@@H](NC[C@H](Cc1ccccc1)NC(=O)c1cc(C(=O)N[C@H](C)c2ccccc2)cc(N(C)S(C)(=O)=O)c1)[C@H](C)O | < 6.00 |  | 
2 | CCC[C@H](O)[C@H](NC[C@H](Cc1ccccc1)NC(=O)c1cc2c3c(c1)c(CC)cn3CC1(CC1)S(=O)(=O)N2C)C(=O)NC(C)C | 9.33 | 7.85 | 5.70
